Results on twelve compounds are retold here after patent US20160256560A1, “Environmentally Sensitive Compositions” (priority 2010, published 2016).

Read-outs that look alike come from different tables or passages of the source. *1 amine or outer side, *2 acyl side, *3 side chain or, on linkers, in order; H or OH if unused. Where a SMILES comes first, the peptide text is derived from it. Bridges are numbered along the chain shown (N, C = ends). Where no end group is shown, it is not given here. [ ]: non-standard residue; d: D form. ξ: configuration not given here. ξTrp(2-yl) = O=C(C(Cc1c([*:3])[nH]c2ccccc12)N[*:1])[*:2]; X1 = CC(O)(CO)CC(N[*:1])C(=O)[*:2]; Hyp = O=C(O)[CH]1C[CH](O)CN1 A value given as a limit tells only on which side of the number the result lay.

Data set [1] deals with luciferase pre-mRNA aberrant splice sites in HeLa cells. The data set is classed as cell-based, human.
The target of data set [2] is Rabbit muscle actin, polymerized filamentous actin (F-actin) (rabbit) (UniProt P68135). The data set can be described thus: fluorescence anisotropy (ex 570 nm / em 610 nm), separate titration of phallTxR by F-actin without competitor; value for fully bound tracer. (In general: In fluorescence polarisation assays a small probe gives low polarisation when free and higher when bound to something large.)

Data set [3] shares this target. The data set can be described thus: fluorescence anisotropy (ex 570 nm / em 610 nm), titration of phallTxR by F-actin; value for unbound tracer.
The target in a further data set is actin filaments. Conditions: read-out: Kd, binding to actin filaments; cited from earlier work.
Data set [4] deals with HeLa cells.
Data set [5] can be described thus: physchem.
The test system of data set [6] is tumor. The data set can be described thus: Animal studies of variants: tumor/organ fluorescence 4 and 24 h post-injection. Conditions: after 24 hours.
A short description of data set [7]: physchem. This is another data set of the same source.
Data set [8] relates to tumor. The settings on record: in vivo.
Data set [9] is described as follows: Stopped-flow fluorescence and CD kinetics of insertion/folding and exit/unfolding. The data set is classed as physicochemical.
Data set [10] is described as follows: Analytical ultracentrifugation, sedimentation velocity. Conditions: 7 μM, pH 8. The format is physicochemical.
The conditions of data set [11]: mouse, in vivo.
The next data set has as its system GFP fluorescent tumors. The settings on record: mouse, in vivo.
For data set [12], the system named is HeLa cells. The data set is classed as cell-based, human.
A further data set has as its system HeLa tumors. The settings on record: mouse, in vivo.
The conditions of data set [13]: in vivo; cited from earlier work.
Data set [14] is classed as physicochemical. The settings on record: absorbance at 300 nm. Here is the method: Peptides were labeled at the C-terminal Cys residues using the membrane-impermeable compound maleimide-PEG2-biotin (Thermo Scientific), which has a long polar spacer arm of 29.1 Å that allows adequate biotin binding to avidin. The synthesis reaction was performed in 10 mM phosphate buffer, pH 7.5 (overnight incubation at 4° C.). Reaction products were purified by HPLC, and the mass of the biotin-labeled peptides checked by MALDI-TOF mass spectrometry. The octanol/water partition coefficient of maleimide-PEG2-biotin was determined experimentally by measuring the absorbance at 300 nm in the aqueous and octanol (previously pre-equilibrated with water) phases after a 2 h vortexing. A log P value of −1.07±0.02 was obtained. […] (Kuyper et al., 2006, J. Am. Chem. Soc. 128(10), 3233-40).

Data set [15] can be described thus: Membrane affinity and insertion kinetics of variants Var1-16. The data set is classed as physicochemical. The settings on record: relative to WT pHLIP.
Data set [16] deals with HeLa cells. The format is cell-based, human. The settings on record: 1 uM, pH 6.2, 1.5 h.
Another data set has as its system JC cells. The settings on record: pH 6.1.
Data set [17] is classed as in vitro ADME. Conditions: pH 6.2.

As for “pHLIP-S—S-CCTCTTACCTCAGTTACA (all peptide nucleic acid (PNA); pHLIP peptide disulfide-linked to the PNA, end not given here) [pHLIP-PNA construct]”, in [1], the “luciferase activity localized to tumor sites” value is listed as “significantly higher luciferase activity” and the “uptake by cells in vivo compared to other constructs” value is “Significantly greater amounts”.

As for Texas Red-X phalloidin (peptide), the fluorescence anisotropy came to 0.24 in data set [2] and 0.04 in [3].

As to `CC1NC(=O)C(CC(C)(O)CO)NC(=O)C2Cc3c([nH]c4ccccc34)SCC(NC(=O)C(C(C)O)NC1=O)C(=O)N1CC(O)CC1C(=O)NC(C)C(=O)N2` (stereo not drawn) [phalloidin] (cyclo([X1]ATC[Hyp]A[ξTrp(2-yl)]); thioether 4-7; configuration not given here), the Kd – broadly, a measure of binding affinity in units of concentration – on actin filaments was below 40 nM. In addition, the “inhibitory effect on M4A4 proliferation” value with M4A4 cells is “no inhibitory effect”. Moreover, the “inhibitory effect on HeLa proliferation” value in the data set with HeLa cells [4] is given as “no inhibitory effect”. In addition, in “physchem [5]”, the logP (commonly a log measure of how a compound divides between an organic and an aqueous phase) is -1.5.

On to ACDDQNPWRAYLDLLFPTDTLLLDLLW [Var3-3D], for which the retention in kidney result in the data set with tumor [6] is listed as “also retained in the kidney after 24 hours”.

Consider “AAEQNPIYWARYADWLFTTGLLLLDLALLVDADEGT [P20G]”, for which, in “physchem [7]”, the pKa – broadly, the negative logarithm of the acid dissociation constant – was around 6.7. Moreover, the “Findings: biodistribution / blood clearance” value in the data set on tumor [8] is listed as “Goes the liver”.

Regarding “H-GGEQNPIYWARYADWLFTTPLLLLDLALLVDADEGT-OH [pHLIP]”, the “pH range over which titration occurs” value was around 1 pH unit. For the same compound, the “interfacial helix formation time” value in data set [9] turned out to be 0.1 s. The “oligomer share of total population” value in data set [10] is on record as around 6%. Moreover, in data set [11], the adverse effects entry is recorded as “did not show any adverse effects”. Moreover, the “toxic effects in mice” value in the data set on GFP fluorescent tumors is reported as “did not induce any toxic effects”. The “inhibitory effect on HeLa proliferation” value in the data set with HeLa cells [4] is listed as “no inhibition of proliferation was observed”. Besides, the “recruitment of anti-DNP antibodies, pH 6.2 versus pH 7.4 (times more)” value in the data set with HeLa cells [12] was “not capable of significantly recruiting”.

Consider gold nanoparticles, for which, in the data set on HeLa tumors, the “amount of gold, Bladder” value is given as 0.010 ± 0.094 % of injected dose per gram of tissue; the “amount of gold, Blood” value is reported as 0.028 ± 0.028 % of injected dose per gram of tissue; the “amount of gold, Heart” value was 0.075 ± 0.010 % of injected dose per gram of tissue; the “amount of gold, Intestine” value was 0.034 ± 0.021 % of injected dose per gram of tissue. In addition, in the data set on HeLa tumors, the “amount of gold, Kidney” value is 1.561 ± 0.098 % of injected dose per gram of tissue; the “amount of gold, Liver” value is given as 0.082 ± 0.082 % of injected dose per gram of tissue; the “amount of gold, Lung” value is listed as 0.119 ± 0.025 % of injected dose per gram of tissue; the “amount of gold, Muscle” value is recorded as 1.836 ± 0.071 % of injected dose per gram of tissue. Besides, in the data set on HeLa tumors, the “amount of gold, Skin” value is 0.129 ± 0.041 % of injected dose per gram of tissue; the “amount of gold, Spleen” value is 0.097 ± 0.039 % of injected dose per gram of tissue; the “amount of gold, Stomach” value was 0.012-30.011 % of injected dose per gram of tissue. For the same compound, in the data set on HeLa tumors (iv), the “amount of gold, Bladder” value was 0.050 ± 0.050 % of injected dose per gram of tissue; the “amount of gold, Blood” value is 0.091 ± 0.020 % of injected dose per gram of tissue; the “amount of gold, Heart” value is given as 0.069 ± 0.004 % of injected dose per gram of tissue; the “amount of gold, Intestine” value is 0.073 ± 0.002 % of injected dose per gram of tissue. Further, in the data set on HeLa tumors (iv), the “amount of gold, Kidney” value is 1.206 ± 0.078 % of injected dose per gram of tissue; the “amount of gold, Liver” value is reported as 0.392 ± 0.031 % of injected dose per gram of tissue; the “amount of gold, Lung” value was 0.128 ± 0.000 % of injected dose per gram of tissue; the “amount of gold, Muscle” value is recorded as 0.053 ± 0.005 % of injected dose per gram of tissue. In addition, in the data set on HeLa tumors (iv), the “amount of gold, Skin” value is listed as 0.204 ± 0.029 % of injected dose per gram of tissue; the “amount of gold, Spleen” value is recorded as 0.089 ± 0.045 % of injected dose per gram of tissue; the “amount of gold, Stomach” value is on record as 0.081 ± 0.000 % of injected dose per gram of tissue. Moreover, the LD50 entry in data set [13] is on record as “approximately 3.2 g Au kg^−1”.

Turning to “ACEEQNPWARYLEWLFPTETLLLEL [Cys-Short-3E]”, in the data set with tumor [6], the retention in kidney result is on record as “also retained in the kidney after 24 hours”.

As for `O=C(CCCC[C@@H]1SC[C@@H]2NC(=O)N[C@@H]21)NCCOCCOCCNC(=O)CCN1C(=O)C=CC1=O` [maleimide-PEG2-biotin], the “log P (octanol/water)” value in data set [14] was −1.07±0.02.

With “WT-reverse (TEDADVLLALDLLLLPTTFLWDAYRAWYPNQECA)”, in [15], the “Findings: Inserts into membrane, times faster than WT” value is given as “Inserts into membrane 10 times”.

Consider `CC[C@H](C)[C@@H]1NC(=O)CNC(=O)[C@@H]2Cc3c([nH]c4cc(O)ccc34)[S@+]([O-])C[C@H](NC(=O)CNC1=O)C(=O)N[C@@H](CC(N)=O)C(=O)N1C[C@H](O)C[C@H]1C(=O)N[C@@H]([C@@H](C)[C@@H](O)CO)C(=O)N2` [amanitin, α-amanitin], for which the “cell growth after treatment (ECIS)” value with HeLa cells [16] is given as “continue to grow”.

As for `CC[C@H](C)[C@H](NC(=O)[C@@H]1CCCN1C(=O)[C@H](CC(N)=O)NC(=O)[C@H](CCC(N)=O)NC(=O)[C@H](CCC(=O)O)NC(=O)[C@H](C)NC(=O)[C@H](C)NC(C)=O)C(=O)N[C@@H](Cc1ccc(O)cc1)C(=O)N[C@@H](Cc1c[nH]c2ccccc12)C(=O)N[C@@H](C)C(=O)N[C@@H](CCCNC(=N)N)C(=O)N[C@@H](Cc1ccc(O)cc1)C(=O)N[C@@H](C)C(=O)N[C@@H](CC(=O)O)C(=O)N[C@@H](Cc1c[nH]c2ccccc12)C(=O)N[C@@H](CC(C)C)C(=O)N[C@@H](Cc1ccccc1)C(=O)N[C@H](C(=O)N[C@H](C(=O)N1CCC[C@H]1C(=O)N[C@@H](CC(C)C)C(=O)N[C@@H](CC(C)C)C(=O)N[C@@H](CC(C)C)C(=O)N[C@@H](CC(C)C)C(=O)N[C@@H](CC(=O)O)C(=O)N[C@@H](CC(C)C)C(=O)N[C@@H](C)C(=O)N[C@@H](CC(C)C)C(=O)N[C@@H](CC(C)C)C(=O)N[C@H](C(=O)N[C@@H](CC(=O)O)C(=O)N[C@@H](C)C(=O)N[C@@H](CC(=O)O)C(=O)N[C@@H](CCC(=O)O)C(=O)NCC(=O)N[C@H](C(=O)N[C@@H](CCCCNC(=O)c1ccc(-c2c3ccc(N(C)C)cc3[o+]c3cc(N(C)C)ccc23)c(C(=O)[O-])c1)C(=O)N[C@@H](CSSCCC(=O)NC[C@](C)(O)C[C@@H]1NC(=O)[C@@H]2Cc3c([nH]c4ccccc34)SC[C@H](NC(=O)[C@@H]([C@H](C)O)NC(=O)[C@H](C)NC1=O)C(=O)N1C[C@@H](O)C[C@H]1C(=O)N[C@@H](C)C(=O)N2)C(=O)NCC(=O)O)[C@@H](C)O)C(C)C)[C@@H](C)O)[C@@H](C)O` [pHLIP-K(rho)C(aph)], the “inhibition of JC growth” value in the data set on JC cells was 78%. Further, the “decomposition during cell incubation (HPLC)” value in data set [17] is reported as “no detectable decomposition”. Moreover, the multinucleation result in the data set with HeLa or M4A4 cells is on record as “became multinucleated”. The “cytoskeletal immobilization on trypsinization / cytotoxic morphology” value in the data set on HeLa or M4A4 cells (pH 6.1) was “exhibited a reduced ability to contract”. Further, the “inhibition of M4A4 proliferation” value with M4A4 cells (pH 6.2) was 92%. The “effect on cell growth” value in the data set with HeLa cells [4] (pH 7.4) is on record as “did not have any effect on cell growth”.
